From article PMC11325505, “Nitrogen-Containing Flavonoids—Preparation and Biological Activity” (ACS Omega, 2024) come the findings set out here.

Experiment [1] concerns immortalized human keratinocytes (HaCaT). The experiment can be described thus: Cytotoxicity (resazurin assay), keratinocytes. The experiment is classed as cell-based. As to conditions: 72 h incubation, resazurin, average of three repetitions ± SEM, read-out: HaCaT IC50 (concentration that halved the viability). How it is done:
(§1) The cytotoxicity of the prepared derivatives was evaluated by their ability to decrease the viability of immortalized human keratinocytes (HaCaT) and human dermal fibroblasts (HDF).
(§2) 100 μL of cell suspension containing 10^5 cells/mL was pipetted into a 96-well plate. After 24 h incubation, the tested compounds were added in the concentration range 12.5–200 μM. After 72 h incubation, the cell viability was tested by standard resazurin assay.[41] Briefly, the cells were washed with PBS and incubated with 100 μL of resazurin solution (0.025 mg/mL) for 2 h. The fluorescence was measured at a wavelength of 560 nm excitation/590 nm emission.
(In general: Alamar Blue is a resazurin reagent that responds to reducing activity.)

In experiment [2] the test system is human dermal fibroblasts (HDF). Briefly: Cytotoxicity (resazurin assay), fibroblasts. In kind it is cell-based. As to conditions: 72 h incubation, resazurin, average of three repetitions ± SEM, read-out: HDF IC50 (concentration that halved the viability). How it is done: as §1, §2
Another experiment concerns S. aureus MRSA 9. Briefly: Antibacterial activity, multidrug-resistant strain. The experiment is classed as cell-based. As to conditions: for effect of the antibiotic alone on the multidrug-resistant clinical strain: breakpoint concentrations (1 mg/L); for IC50: Staphylococcus aureus, MRSA, multidrug-resistant strain, three repetitions ± SEM. The protocol:
(§3) To evaluate the ability to modulate bacterial resistance, the tested flavonoids themselves cannot exert antimicrobial activity; therefore, the nontoxic concentration was used, as indicated in Table S5. Clinically relevant antibiotics were selected at breakpoint concentrations for susceptibility testing according to the European Committee on Antimicrobial Susceptibility Testing (EUCAST, version 11.0). […] Flavonoids and their derivatives (from 1 μM to the highest nontoxic concentration) were used in combination with the breakpoint concentration of the antibiotics. After coincubation, the minimum inhibitory concentration (MIC) of flavonoids inhibiting the visible growth of bacteria was determined (Table 2).
(§4) Sensitization of multidrug-resistant clinical bacterial strains was performed according to ref[15]. Antibiotic cutoff concentration was chosen according to the European Committee on Antimicrobial Susceptibility Testing (EUCAST, Clinical breakpoints–bacteria, ver. 11.0). The 200 μM concentration of the derivatives was chosen as the highest test concentration. The absorbance detected at 600 nm was then used to estimate the number of viable cells after 24 h of incubation at 37 °C and 120 rpm.
(§5) Experiments were performed with the respective number of replicates indicated in each figure/table. MIC was determined as IC70. Both IC70 and IC50 values were calculated using the following nonlinear regression in the software GraphPad Prism: […]

Another experiment concerns RAW 264.7 cells. Briefly: Cellular antioxidant activity (CAA). The experiment is classed as cell-based, Murine. The settings on record: Mus musculus, RAW264.7, macrophages RAW 264.7; average of four repetitions ± standard error of the mean. How it is done:
To evaluate the antioxidant activity of the prepared derivatives and the respective parent compounds, cellular antioxidant activity (CAA) was measured in macrophages. Compared to other in vitro antioxidant assays, this method provides partial information about the uptake and metabolism of the compounds, because, in this assay, they must first enter the cell to exert antioxidant activity.[31] […] Derivatization of quercetin at C-8 with 4-fluoroaniline (5) increased the antioxidant activity of quercetin by 1.7-fold. […] The concentration of these derivatives required to halve the cellular radicals decreased 1.5-fold compared to luteolin.
Cellular antioxidant capacity was evaluated as previously described.[31],[39] Briefly, 100 μL of RAW 264.7 cells with a density corresponding to 1 × 10^6 cells/mL were split into 96-well plates. After 24 h, cells were washed with PBS, and DMEM supplemented with DCFH-DA (0.0125 mg/mL) was added to each well together with the tested samples in the concentration range of 1.5–200 μM. After 1 h incubation in a CO2 incubator, the medium was replaced with AAPH solution (0.16 mg/mL in PBS), and fluorescence was immediately recorded (ex./em. 485/540 nm) for 2 h in 5 min intervals.

In experiment [3] the test system is nitric oxide (NO) production by RAW 264.7 stimulated by LPS. The experiment can be described thus: Anti-inflammatory activity: NO production by LPS-stimulated macrophages. In kind it is cell-based, Murine. As to conditions: Mus musculus, RAW264.7; LPS-stimulated RAW 264.7; average of four repetitions ± SEM. How it is done:
(§6) The anti-inflammatory activity of flavonoids was evaluated as their ability to decrease the production of signaling molecules that mediate inflammation, such as nitric oxide (NO), tumor necrosis factor (TNF-α), and interleukin 6 (IL-6), in LPS-stimulated macrophages.
(§7) The anti-inflammatory activity of the tested flavonoids was determined as the ability to reduce the production of nitric oxide (NO), tumor necrosis factor (TNF-α), and interleukin 6 (IL-6) by RAW 264.7 stimulated by LPS, as previously described.[39],[40] Briefly, 1 × 10^6 cells/mL was seeded into the 96-well plate (100 μL/well). After 48 h, LPS (100 ng/mL) and the samples (3–100 μM) were added to the MEM medium. After 24 h, the medium was mixed with Griess reagent (0.04 g/mL) at a 1:1 ratio. The absorbance was measured after 15 min at 540 nm. Cell viability was determined using the resazurin assay.

Experiment [4] relates to interleukin 6 (IL-6) production by RAW 264.7 stimulated by LPS. Briefly: Anti-inflammatory activity: IL-6 production by LPS-stimulated macrophages. The experiment is classed as cell-based, Murine. The settings on record: Mus musculus, RAW264.7; LPS-stimulated RAW 264.7; average of four repetitions ± SEM. The protocol:
as §6, §7
(§8) To determine TNF-α levels, cells were precultivated with the tested compounds for 24 h. After 2 h of incubation with LPS, the medium was diluted 1:10 with ELISA diluent. To determine the level of IL-6, cells were cultivated for 6 h with LPS and the tested compounds. Cytokine production was determined using an uncoated ELISA performed according to the manufacturer’s instructions.

Experiment [5] relates to tumor necrosis factor (TNF-α) production by RAW 264.7 stimulated by LPS. The experiment can be described thus: Anti-inflammatory activity: TNF-α production by LPS-stimulated macrophages. In kind it is cell-based, Murine. As to conditions: Mus musculus, RAW264.7; LPS-stimulated RAW 264.7; average of four repetitions ± SEM; read-out: TNFα production IC50. How it is done: as §6, §7, §8

For experiment [6], the system named is Staphylococcus aureus MRSA 9. The experiment can be described thus: Modulation of antibiotic-resistant phenotype (flavonoid plus breakpoint concentration of antibiotic). The experiment is classed as cell-based. The settings on record: for minimum inhibitory concentration (MIC) in the presence of erythromycin: erythromycin at breakpoint concentration 1 mg/L; for minimum inhibitory concentration (MIC) in the presence of erythromycin / minimum inhibitory concentration (MIC) in the presence of gentamicin: MIC determined as IC70, three repetitions ± SEM; for minimum inhibitory concentration (MIC) in the presence of gentamicin: gentamicin at breakpoint concentration 1 mg/L. The protocol:
as §3, §4, §5

The test system of another experiment is S. aureus CCM 4223. Briefly: Antibacterial activity, antibiotic-sensitive strain. The experiment is classed as cell-based. The settings on record: Staphylococcus aureus, CCM4223, three repetitions ± SEM.
Another experiment relates to MRSA 3596. Briefly: Mode of antimicrobial action with erythromycin or gentamicin, ermA- and aadD-positive strain. In kind it is cell-based, S. aureus. As to conditions: MRSA 3596 (aadD).
From the text: Erythromycin is a macrolide antibiotic that inhibits proteosynthesis by binding to the 50S subunit of the ribosome. In Staphylococcus species, resistance to erythromycin is associated with the presence of methyltransferases (encoded by erm genes) that alter the ribosomal target site. Another typical mechanism of resistance to erythromycin is the presence of an ATP-dependent efflux pump encoded by the msr(A) gene or a major facilitator superfamily (MFS) pump encoded by the lmrS gene. Both efflux pumps reduce the concentration of erythromycin in the cell below the therapeutic dose by transporting it across the membrane to the extracellular space. Another erythromycin resistance gene is the mph(C) gene, the product of which is a phosphotransferase that alters the structure of macrolide antibiotics. To elucidate the mechanism of erythromycin resistance modulation in S. aureus, further tests were performed with the strains MRSA 331 and MRSA 3596, which inactivate erythromycin via a single mechanism (ermC and ermA, respectively). […] Therefore, if the activity was not strain-specific, it would be necessary to consider the effect of the derivatives on this pump (Table 3).
(§9) Among the mechanisms of resistance to gentamicin previously described in S. aureus, the presence of enzymes that alter the structure of aminoglycosides is crucial. These enzymes can transfer nucleotides, phosphates, or acetyls to various −OH or −NH2 groups of gentamicin, preventing its subsequent interaction with the cellular target, i.e., the 30S ribosomal subunit. The bifunctional aminoglycoside-modifying enzyme with acetylation and phosphotransferase activities encoded by the gene aac(6’)/aph(2’), 4′,4″ adenyltransferase encoded by the aadD gene, and aminoglycoside O-phosphotransferase encoded by the gene aph(3′) are the most important.[37] […] For this reason, further testing continued using strains MRSA 3596 and MRSA 1584, which inactivate gentamicin only by a single mechanism (aadD and aac(6’)-aph(2’’), respectively).
as §4, §5

The test system of the next experiment is MRSA 1584. The experiment can be described thus: Mode of antimicrobial action with gentamicin, aac(6')/aph(2')-positive strain. The experiment is classed as cell-based, Staphylococcus aureus.
From the text: as §9, §4, §5

In brackets after ≈: the same amount, converted by molar mass. Like-named read-outs stand apart in the source and are kept apart here.

Consider `COc1cccc2c1C(=O)c1c(O)c3c(c(O)c1C2=O)C[C@@](O)(C(=O)CO)C[C@@H]3O[C@H]1C[C@H](N)[C@H](O)[C@H](C)O1` [Doxorubicin, reference compound], for which the IC50 in experiment [1] (listed as doxorubicin) was below 1 µM; in [1], 0.42 ± 0.03 µM; in experiment [2] (listed as doxorubicin), below 1 µM; in experiment [2], 0.19 ± 0.01 µM.
On to `CC[C@H]1OC(=O)[C@H](C)[C@@H](O[C@H]2C[C@@](C)(OC)[C@@H](O)[C@H](C)O2)[C@H](C)[C@@H](O[C@@H]2O[C@H](C)C[C@H](N(C)C)[C@H]2O)[C@](C)(O)C[C@@H](C)C(=O)[C@H](C)[C@@H](O)[C@]1(C)O` [Erythromycin, reference compound], for which the “effect of the antibiotic alone on the multidrug-resistant clinical strain” value in the experiment on S. aureus MRSA 9 is “did not affect”.
For the molecule `COc1ccc(Nc2c(O)cc(O)c3c(=O)c(O)c(-c4ccc(O)c(O)c4)oc23)cc1` [compound 6, 2-(3,4-Dihydroxyphenyl)-8-(4-methoxyanilino)-3,5,7-trihydroxy-4H–1-benzopyran-4-one], the IC50 with RAW 264.7 cells is 7.5 ± 0.7 µM; in experiment [3] it was 52.3 ± 2.3 µM; in experiment [4], 32.3 ± 2.3 µM; in [5], above 50 µM; in [1] (Homo sapiens, HaCaT, 72 h), 45.2 ± 3.5 µM; in experiment [2] (Homo sapiens, Fibroblast, 72 h), 79.9 ± 1.5 µM. Moreover, the IC50 came out at 44 ± 0.1 µM in the experiment on S. aureus CCM 4223 and 138 ± 1.2 µM with S. aureus MRSA 9. Moreover, in experiment [6] (Staphylococcus aureus, MRSA, with gentamicin 1 mg/L, maximum concentration used (200 μM), read-out: maximum concentration used inhibited bacterial growth to), the inhibition at 200 µM was found to be 50.7%. Besides, the “minimum inhibitory concentration (MIC) in the presence of erythromycin” value in [6] was above 200 µM. Moreover, the “minimum inhibitory concentration (MIC) in the presence of gentamicin” value in experiment [6] was >200 ^note 2 μM.
For `O=c1c(O)c(-c2ccc(O)c(O)c2)oc2c(Nc3ccccc3)c(O)cc(O)c12` [compound 7, 2-(3,4-Dihydroxyphenyl)-8-(anilino)-3,5,7-trihydroxy-4H–1-benzopyran-4-one], the IC50 with RAW 264.7 cells was 5.5 ± 0.4 µM; in experiment [3], 34.4 ± 0.2 µM; in experiment [4] it was 12.9 ± 0.2 µM; in experiment [5], above 100 µM; in [1] (Homo sapiens, HaCaT, 72 h), 102 ± 1.5 µM; in experiment [2] (Homo sapiens, Fibroblast, 72 h), 115 ± 1.2 µM. Moreover, the IC50 in the experiment with S. aureus CCM 4223 amounted to 32.7 ± 0.7 µM; with S. aureus MRSA 9 it was 70 ± 2 µM. Besides, in [6], the “minimum inhibitory concentration (MIC) in the presence of erythromycin” value is above 200 µM. Also, the “minimum inhibitory concentration (MIC) in the presence of gentamicin” value in [6] was determined as 43.8 ± 1.6 µM. Further, the “MIC, Gentamicin [1 mg/L] yes” value against MRSA 3596 (with gentamicin 1 mg/L) was above 200 µM; against MRSA 1584 (MRSA 1584 (aac(6')/aph(2')), with gentamicin 1 mg/L) it was 31.9 ± 2.5 µM (≈ 12.5 µg/mL). In addition, the MIC in the experiment on MRSA 3596 (Staphylococcus aureus, 24 h, read-out: MIC, Gentamicin [1 mg/L] no, without gentamicin, Table S6) was above 200 µM; with MRSA 1584 (Staphylococcus aureus, 24 h, read-out: MIC, Gentamicin [1 mg/L] no, MRSA 1584, without gentamicin), 29.9 ± 1.2 µM (≈ 11.8 µg/mL). The “effect (mode of action with gentamicin)” value with MRSA 1584 (MRSA 1584) is “indifferent (> 1 to < 2 indicates indifference)”. Further, the “FIC (Fractional Inhibitory Concentration Index)” value in the experiment with MRSA 1584 (MRSA 1584, with gentamicin) is 1.07 ± 0.13.
In the case of `COc1cc(Nc2c(O)cc(O)c3c(=O)c(O)c(-c4ccc(O)c(O)c4)oc23)cc(OC)c1` [compound 9, 2-(3,4-Dihydroxyphenyl)-8-(3,5-dimethoxyanilino)-3,5,7-trihydroxy-4H–1-benzopyran-4-one], the IC50 in the experiment with RAW 264.7 cells is 5.7 ± 1 µM; in experiment [3], 26.6 ± 0.4 µM; in experiment [4] it was above 50 µM; in experiment [5], above 50 µM; in experiment [1] (Homo sapiens, HaCaT, 72 h) it was 56.9 ± 1.9 µM; in experiment [2] (Homo sapiens, Fibroblast, 72 h), 76 ± 3 µM. The IC50 in the experiment with S. aureus CCM 4223 and with S. aureus MRSA 9 was above 200 µM each time. Moreover, the “minimum inhibitory concentration (MIC) in the presence of erythromycin” value in experiment [6] was above 200 µM. Also, in [6], the “minimum inhibitory concentration (MIC) in the presence of gentamicin” value was above 200 µM.
Consider `CNC(C)C1CCC(N)C(OC2C(N)CC(N)C(OC3OCC(C)(O)C(NC)C3O)C2O)O1` (stereo not shown) [gentamicin, reference compound], for which the “effect of the antibiotic alone on the multidrug-resistant clinical strain” value in the experiment with S. aureus MRSA 9 is recorded as “did not affect”.
